# What was measured:
# 3′-ACGGCCAC-5′ = experiment: Tm of LNA:DNA and DNA:DNA 8-mer duplexes, single mismatch (Table 2); format: binding; conditions: for ΔTm: perfect match vs single mismatch
# Excerpt: (§1) It is often difficult to design probes and primers with the same range of melting temperature due to the variance in A/T and G/C content of the probing sites. Highly A/T rich regions typically give lower Tm values. Furthermore, if single mismatches are to be resolved, G/T mismatches are known to contribute little to ΔTm. As discussed above, the use of LNA is a desirable way to solve problems related to multiplex use of primers and probes. LNA offers the possibility to adjust Tm and increase the ΔTm at the same time. LNA increases Tm with 4-8° C./substitution and Increases ΔTm in many cases with several 100% (Table 2 and FIG. 22).
# 3′-ACGACCAC-5′ = experiment: Tm of LNA:DNA and DNA:DNA 8-mer duplexes, perfect match (Table 2); format: binding
# Excerpt: as §1
# caacaacccaca = experiment: Tm of chimeric LNA-DNA 12-mers, HNFas128A-2, singly mismatched duplex; format: binding; conditions: for Tm (± 0.5° C.) of the duplexes with DNA oligonucleotide caacaacccaca: Table 5, HNFas128A-2, singly mismatched, duplexes 2 μM, buffer as Table 4; for ΔTm between singly mismatched and perfect duplexes (HNFas128A-2): Table 5, value in brackets
# Method: (§2) The thermal denaturation experiments were performed on a Perkin-Elmer UV/VIS spectrometer fitted with a PTP-6 Peltier temperature-programming element using a medium salt buffer solution (10 mM sodium phosphate, 100 mM sodium chloride, 0.1 mM EDTA, pH 7.0). […] The absorbance was monitored at 260 nm while raising the temperature at a rate of 1° C. per min. The melting temperatures (Tm values) of the duplexes were determined as the maximum of the first derivatives of the melting curves obtained.
# caacatcccaca = experiment: Tm of chimeric LNA-DNA 12-mers, HNFas128A-2, perfect duplex; format: binding; conditions: Table 5, HNFas128A-2, perfect duplex; duplexes 2 μM; buffer as Table 4
# Method: as §2
# aagaggccagtg = experiment: Tm of chimeric LNA-DNA 12-mers, Gluc53as-A, singly mismatched duplex; format: binding; conditions: for Tm (± 0.5° C.) of the duplexes with DNA oligonucleotide aagaggccagtg: Table 5, Gluc53as-A, singly mismatched, duplexes 2 μM, buffer as Table 4; for ΔTm between singly mismatched and perfect duplexes (Gluc53as-A): Table 5, value in brackets
# Method: as §2
# aagagtccagtg = experiment: Tm of chimeric LNA-DNA 12-mers, Gluc53as-A, perfect duplex; format: binding; conditions: Table 5, Gluc53as-A, duplexes 2 μM, buffer as Table 4
# Method: as §2
# 3′-TGTATC = experiment: Tm of duplexes of 6-mers with LNA 3′-TGTATC; format: binding; conditions: Table 8; duplexes 2.5 μM; 0.1 M NaCl, 10 mM Na-phosphate pH 7.0, 10 mM EDTA
# Method: (§3) (entry 1) to 53.5° C. (entry 2) thus verifying the reduced strength of the intramolecular hydrogen bonds of the self complementary oligonucleotide. At the same time the oligonucleotides containing the SBC LNA monomers are able to hybridize to complementary DNA due to the increased binding efficiency of LNA-D and LNA-^2SU. Similarly as exemplified in Table 8 (see below) the Tm of a duplex between 2 complementary oligonucleotides containing e.g. 3 SBC LNA pairs (entry 3) is reduced to 59° C. from the corresponding non-SBC LNA duplex (82° C.-entry 1) while the single-stranded SBC LNA oligonucleotides still are capable to hybridize to complementary non-modified LNA oligonucleotides as well as DNA oligonucleotides with increased Tm.
# 3′-^2SUG^2SUA^2SUC = experiment: Tm of duplexes of 6-mers with SBC-LNA 3′-^2SUG^2SUA^2SUC; format: binding; conditions: Table 8; duplexes 2.5 μM; 0.1 M NaCl, 10 mM Na-phosphate pH 7.0, 10 mM EDTA
# Method: as §3
# 3′-TG^2SUATC = experiment: Tm of duplexes of 6-mers with SBC-LNA 3′-TG^2SUATC; format: binding; conditions: Table 8; duplexes 2.5 μM; 0.1 M NaCl, 10 mM Na-phosphate pH 7.0, 10 mM EDTA
# Method: as §3
# 3′-ctgtatcc = experiment: Thermal denaturation (Tm) of duplexes with complementary DNA 3′-ctgtatcc; format: binding; conditions: Table 8; duplexes 2.5 μM; 0.1 M NaCl, 10 mM Na-phosphate pH 7.0, 10 mM EDTA
# Method: The complexing properties of oligonucleotides containing new LNA monomers 1-3 were assessed. Comparative binding data from an 8-mer LNA sequence is shown in Table 4 as the melting temperatures against complementary single-stranded DNA. An exemplary sequence for this comparison is GACATAGG, which is the central part of a capture probe used for SNP detection in GluclVS7-7asA (A:a mismatch position). The thermal stabilities of reference DNA duplexes (entries 1-7, Table 4) can be directly compared with their LNA counterparts (entries 8-14). […] The average melting temperatures of DNA and LNA 8-mers against complementary DNAs typically differ by about 40° C. […] (i.e., entries 1 and 4). D-nucleosides may facilitate a B to A helix transition, because the A-type structure of an LNA:DNA duplex is more suitable for effective D:t pairing. This stabilizing effect is expected to be even more pronounced for LNA:RNA duplexes, which can be very useful for construction of antisense or other gene-silencing reagents. The mismatch discrimination ability of the D-nucleoside was also studied (entry 11).
# The absorbance was monitored at 260 nm while raising the temperature at a rate of 1° C. per min. The melting temperatures (Tm values) of the duplexes were determined as the maximum of the first derivatives of the melting curves obtained.
# [1] = system: self complementary duplex; experiment: Tm of self complementary duplexes of dual labeled SBC-LNA probes; format: binding; conditions: Table 7, duplexes 2 μM, 0.1 M NaCl, 10 mM Na-phosphate pH 7.0, 1 mM EDTA
# Method: as §3
compound,measurement,setting,value
5′-TGCTGGTG-3′ [LNA 8-mer],"Tm of LNA:DNA Duplexes, Single mismatch 3′-ACGGCCAC-5′",3′-ACGGCCAC-5′,45 °C
same,ΔTm,3′-ACGGCCAC-5′,26 °C
same,"Tm of LNA:DNA Duplexes, Perfect match 3′-ACGACCAC-5′",3′-ACGACCAC-5′,71 °C
tGtggGDTGttg,Tm (± 0.5° C.) of the duplexes with DNA oligonucleotide caacaacccaca,caacaacccaca,49.7 °C
same,ΔTm between singly mismatched and perfect duplexes (HNFas128A-2),caacaacccaca,−15.8 °C
same,Tm (± 0.5° C.) of the complementary duplexes with DNA oligonucleotide caacatcccaca,caacatcccaca,65.5 °C
cAmCtgGDmCtctt,Tm (± 0.5° C.) of the duplexes with DNA oligonucleotide aagaggccagtg,aagaggccagtg,45.4 °C
same,ΔTm between singly mismatched and perfect duplexes (Gluc53as-A),aagaggccagtg,−19.9 °C
same,Tm (± 0.5° C.) of the complementary duplexes with DNA oligonucleotide aagagtccagtg,aagagtccagtg,65.3 °C
"Nc1ncc2ncn([C@@H]3O[C@@]4(CO)CO[C@@H]3[C@@H]4O)c2n1 [Compound 23, (1S,3R,4R,7S)-3-(2-aminopurin-9-yl)-7-hydroxy-1-hydroxymethyl-2,5-dioxabicyclo[2.2.1]heptane]",melting point,,227.5 to 229 °C (dec.)
5′-ACDTAG,Tm of the duplexes with 3′-TGTATC,3′-TGTATC,93 °C
same,Tm of the duplexes with 3′-^2SUG^2SUA^2SUC,3′-^2SUG^2SUA^2SUC,73 °C
same,Tm of the duplexes with 3′-TG^2SUATC,3′-TG^2SUATC,75 °C
same,Tm of the duplexes with 3′-ctgtatcc,3′-ctgtatcc,37 °C
"5′-TGCTGGTG-3′ [DNA 8-mer, reference compound]","Tm of LNA:DNA Duplexes, Single mismatch 3′-ACGGCCAC-5′",3′-ACGGCCAC-5′,25 °C
same,ΔTm,3′-ACGGCCAC-5′,10 °C
same,"Tm of LNA:DNA Duplexes, Perfect match 3′-ACGACCAC-5′",3′-ACGACCAC-5′,35 °C
5′-DCDTDG,Tm of the duplexes with 3′-TGTATC,3′-TGTATC,>97 °C
same,Tm of the duplexes with 3′-^2SUG^2SUA^2SUC,3′-^2SUG^2SUA^2SUC,59 °C
same,Tm of the duplexes with 3′-TG^2SUATC,3′-TG^2SUATC,95 °C
same,Tm of the duplexes with 3′-ctgtatcc,3′-ctgtatcc,55 °C
5′-Fitc-taDDT^2SU^2SUta-EQL,Tm ^a of self complementary duplexes,[1],53.5 °C
5′-Fitc-tDDDt^2S U^2SU^2SUa-EQL,Tm ^a of self complementary duplexes,[1],64.5 °C
"tGtggGATGttg (TGTGGGATGTTG; chemistry not given here) [chimeric LNA-DNA 12-mer, HNFas128A-2, with LNA-A]",Tm (± 0.5° C.) of the duplexes with DNA oligonucleotide caacaacccaca,caacaacccaca,45.9 °C
same,ΔTm between singly mismatched and perfect duplexes (HNFas128A-2),caacaacccaca,−15.1 °C
same,Tm (± 0.5° C.) of the complementary duplexes with DNA oligonucleotide caacatcccaca,caacatcccaca,61.0 °C
5′-ACATAG,Tm of the duplexes with 3′-TGTATC,3′-TGTATC,82 °C
same,Tm of the duplexes with 3′-^2SUG^2SUA^2SUC,3′-^2SUG^2SUA^2SUC,83 °C
same,Tm of the duplexes with 3′-TG^2SUATC,3′-TG^2SUATC,85 °C
same,Tm of the duplexes with 3′-ctgtatcc,3′-ctgtatcc,27 °C
5′-Fitc-tAAATTTTA-EQL,Tm ^a of self complementary duplexes,[1],>90 (94-96) ° C.
same,Tm ^a of self complementary duplexes,[1]; listed as Table 7 entry 1,90 °C
"cAmCtgGAmCtctt (CACTGGACTCTT; mixed-case modified oligonucleotide, notation key not given here) [chimeric LNA-DNA 12-mer, Gluc53as-A, with LNA-A]",Tm (± 0.5° C.) of the duplexes with DNA oligonucleotide aagaggccagtg,aagaggccagtg,50.6 °C
same,ΔTm between singly mismatched and perfect duplexes (Gluc53as-A),aagaggccagtg,−10.9 °C
same,Tm (± 0.5° C.) of the complementary duplexes with DNA oligonucleotide aagagtccagtg,aagagtccagtg,61.5 °C
